One compound from patent publication US7223543B2, “Conjugated linoleic acid isomerase and a process for the production of conjugated linoleic acid” (Teagasc Dairy Products Research Centre, priority 2001, dated 2007) can be followed below.

The assay deals with B.breve 2258. In words: Growth inhibition of B.breve 2258 by trilinolein compared with free linoleic acid. It is filed as cell-based, Bifidobacterium breve. The settings on record: compared with similar concentrations of free linoleic acid. An excerpt: B.breve NCFB 2258 was further investigated for ability to utilise triglyceride bound linoleic acid as substrate for CLA production. B.breve NCFB 2258 was inoculated from a fully grown culture into MRS broth with added cysteine (0.05%) and trilinolein (C18:2, cis-9, cis-12, 99% pure, Sigma Chemical Co.), soybean oil and sunflower oil (purchased from a local grocery store) containing known linoleic acid concentrations. The triglyceride mixtures were sterile-filtered through 0.45 μm […] filters and added as 5 mg/ml aqueous solutions in 2.5% (v/v) Tween 80. Substantial vortexing was required to dissolve the fat particles. The volume of the triglyceride stock solutions added was calculated to give a final concentration of 0.2 mg linoleic acid/ml of broth. B.breve 2258 was inoculated into MRS broth in the presence of the triglyceride substrates under anaerobic conditions at 37° C. and incubated for 48 h.

With `CCCCC/C=C\C/C=C\CCCCCCCC(=O)OCC(COC(=O)CCCCCCC/C=C\C/C=C\CCCCC)OC(=O)CCCCCCC/C=C\C/C=C\CCCCC` [trilinolein], the “growth inhibition of B.breve 2258” value is given as “did not inhibit the growth of B.breve 2258 to the same extent as similar concentrations of free linoleic acid”.
